Holding throughout (assay type): cell-based
In assay [1] the test system is J774A.1 (Mouse BALB/c monocyte macrophage cell line) cells. The assay can be described thus: LPS-induced TNF-α secretion inhibition in J774A.1 cells. The note with it: J774.A1, 1 μM compound, graded compared to taurodeoxycholic acid (positive control), read-out: TNF-α production inhibition grade. Summed up:
(§1)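 Mouse J774A.1 macrophages treated with 1 μM compound; TNF-α secretion measured after LPS stimulation and IL-1β secretion after LPS+ATP stimulation. Suppression graded against taurodeoxycholic acid: A over 100%, B 50–100%, C 20–50%, D under 20%.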

The test system is the same in assay [2]. Briefly: LPS+ATP-induced IL-1β secretion inhibition in J774A.1 cells. The note with it: J774.A1, 1 μM compound, graded compared to taurodeoxycholic acid (positive control), read-out: IL-1β production inhibition grade. Put shortly: as §1
Assay [3] relates to U937 cells (human monocytic cell line). Briefly: Pam2CSK4-induced TNF-α secretion inhibition in PMA-differentiated U937 cells. The note with it: U-937, U937 cells differentiated with PMA, read-out: TNF-α production inhibition grade (IC50). Put shortly:
(§2)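 U937 cells were PMA-differentiated into macrophages and treated with compound before inflammatory stimulus. TNF-α secretion was induced with Pam2CSK4 and IL-1β secretion with BzATP. IC50 (μM) values are graded A-D, with separate cut-offs per cytokine.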

Assay [4] has the same test system. Briefly: BzATP-induced IL-1β secretion inhibition in PMA-differentiated U937 cells. The note with it: U-937, U937 cells differentiated with PMA, read-out: IL-1β production inhibition grade (IC50). Put shortly:
as §2

The record followed here is patent US20240391948A1, “NOVEL COMPOUND THAT INHIBITS TNF-ALPHA GENERATION AND INFLAMMASOME ACTIVITY AND PREPARATION METHOD THEREFOR” (SHAPERON INC., priority 2021, published 2024).

As to `C[C@H](CCC(=O)N1CCN(CCS(=O)(=O)O)CC1)[C@H]1CC[C@H]2[C@@H]3CC[C@@H]4C[C@H](O)CC[C@]4(C)[C@H]3C[C@H](O)[C@]12C` [NC10010], the inhibition at 1 µM in assay [1] and in assay [2] was greater than 100% each time. The IC50 is less than 500 nM in assay [3] and less than 50 nM in assay [4].

Take `C[C@H](CCC(=O)N[C@H](CO)CS(=O)(=O)O)[C@H]1CC[C@H]2[C@@H]3CC[C@@H]4C[C@H](O)CC[C@]4(C)[C@H]3CC[C@]12C` [NC10081]: the inhibition at 1 µM in assay [1] and in assay [2] was greater than 100% throughout. Further, the figures for the IC50 in assay [3] and in assay [4] were 500 to 1000 nM and less than 50 nM, respectively.

Take `C[C@H](CCC(=O)N1CC[C@@H](S(=O)(=O)O)C1)[C@H]1CC[C@H]2[C@@H]3[C@H](O)C[C@@H]4C[C@H](O)CC[C@]4(C)[C@H]3C[C@H](O)[C@]12C` [NC20034]: the inhibition at 1 µM in assay [1] and in assay [2] was less than 20% each time. Besides, the IC50 was in the range of 1000 to 2000 nM in assay [3] and 50 to 100 nM in assay [4].

As to `CC[C@H]1[C@@H](O)[C@@H]2[C@H](CC[C@]3(C)[C@@H]([C@H](C)CCC(=O)N[C@H](CO)CS(=O)(=O)O)CC[C@@H]23)[C@@]2(C)CC[C@@H](O)C[C@@H]12` [NC40025], the inhibition at 1 µM in assay [1] and in assay [2] was 20 to 50% in each case. For the same compound, the half-maximal inhibitory concentration (IC50) in assay [3] was 500 to 1000 nM; in assay [4], 50 to 100 nM.

For the compound `CC[C@H]1[C@@H](O)[C@@H]2[C@H](CC[C@]3(C)[C@@H]([C@H](C)CCC(=O)N4CCC[C@H](S(=O)(=O)O)C4)CC[C@@H]23)[C@@]2(C)CC[C@@H](O)C[C@@H]12` [NC40009], the inhibition at 1 µM in assay [1] and in assay [2] was less than 20% each time. For the same compound, the IC50 in assay [3] fell in the range of 1000 to 2000 nM; in assay [4], 100 to 200 nM.

On to `C[C@H](CCC(=O)N[C@@H](Cc1ccccc1)CS(=O)(=O)O)[C@H]1CC[C@H]2[C@@H]3CC[C@@H]4C[C@H](O)CC[C@]4(C)[C@H]3CC[C@]12C` [NC10065], for which the inhibition at 1 µM in assay [1] is less than 20%; in assay [2] it was greater than 100%. In addition, the values for the IC50 in assay [3] and in assay [4] were 1000 to 2000 nM and 100 to 200 nM, respectively.

As for `CC[C@H]1[C@@H](O)[C@@H]2[C@H](CC[C@]3(C)[C@@H]([C@H](C)CCC(=O)NCCC(=O)O)CC[C@@H]23)[C@@]2(C)CC[C@@H](O)C[C@@H]12` [NC40002], the figures for the inhibition at 1 µM in assay [1] and in assay [2] were less than 20% and 20 to 50%, respectively. For the same compound, the 50% inhibitory concentration (IC50) in assay [3] was no less than 2000 nM; in assay [4], no less than 200 nM.

Consider `CC(C)[C@H](CS(=O)(=O)O)NC(=O)CC[C@@H](C)[C@H]1CC[C@H]2[C@@H]3CC[C@@H]4C[C@H](O)CC[C@]4(C)[C@H]3CC[C@]12C` [NC10073], for which the inhibition at 1 µM was less than 20% in assay [1] and 50 to 100% in assay [2]. Moreover, the half-maximal inhibitory concentration (IC50) in assay [3] is less than 500 nM; in assay [4] it was 50 to 100 nM.

With `CC[C@H]1[C@@H](O)[C@@H]2[C@H](CC[C@]3(C)[C@@H]([C@H](C)CCC(=O)NC(C)(C)CS(=O)(=O)O)CC[C@@H]23)[C@@]2(C)CC[C@@H](O)C[C@@H]12` [NC40013], the inhibition at 1 µM is less than 20% in assay [1] and greater than 100% in assay [2]. For the same compound, the values for the IC50 in assay [3] and in assay [4] were 1000 to 2000 nM and less than 50 nM, respectively.

In the case of `CC[C@H]1[C@@H](O)[C@@H]2[C@H](CC[C@]3(C)[C@@H]([C@H](C)CCC(=O)N4CCC[C@@H]4CS(=O)(=O)O)CC[C@@H]23)[C@@]2(C)CC[C@@H](O)C[C@@H]12` [NC40020], the inhibition at 1 µM is less than 20% in assay [1] and greater than 100% in assay [2]. Besides, the IC50 lay in the range of 1000 to 2000 nM in assay [3] and 100 to 200 nM in assay [4].

`C[C@H](CCC(=O)N1CCC[C@@H](S(=O)(=O)O)C1)[C@H]1CC[C@H]2[C@@H]3[C@H](O)C[C@@H]4C[C@H](O)CC[C@]4(C)[C@H]3C[C@H](O)[C@]12C` [NC20010]: the values for the inhibition at 1 µM in assay [1] and in assay [2] were less than 20% and 50 to 100%, respectively. Further, the half-maximal inhibitory concentration (IC50) in assay [3] is 1000 to 2000 nM; in assay [4], less than 50 nM.

Consider `CC[C@H]1[C@@H](O)[C@@H]2[C@H](CC[C@]3(C)[C@@H]([C@H](C)CCC(=O)N(C)CCS(=O)(=O)O)CC[C@@H]23)[C@@]2(C)CC[C@@H](O)C[C@@H]12` [NC40004], for which the inhibition at 1 µM was less than 20% in assay [1] and 50 to 100% in assay [2]. Moreover, the IC50 in assay [3] is no less than 2000 nM; in assay [4], no less than 200 nM.

As to `C[C@H](CCC(=O)N1CC[C@H](S(=O)(=O)O)C1)[C@H]1CC[C@H]2[C@@H]3CC[C@@H]4CC(=O)CC[C@]4(C)[C@H]3CC[C@]12C` [NC30033], the inhibition at 1 µM in assay [1] is less than 20%; in assay [2] it was 20 to 50%. Further, the IC50 in assay [3] lay within 500 to 1000 nM; in assay [4] it was 50 to 100 nM.

Consider `C[C@H](CCC(=O)NC[C@@H](C)S(=O)(=O)O)[C@H]1CC[C@H]2[C@@H]3CC[C@@H]4C[C@H](O)CC[C@]4(C)[C@H]3CC[C@]12C` [NC10079], for which the inhibition at 1 µM in assay [1] is 20 to 50%; in assay [2] it was greater than 100%. The figures for the IC50 in assay [3] and in assay [4] were 500 to 1000 nM and less than 50 nM, respectively.

As for `C[C@H](CCC(=O)N1CCC[C@@H]1CS(=O)(=O)O)[C@H]1CC[C@H]2[C@@H]3[C@H](O)C[C@@H]4C[C@H](O)CC[C@]4(C)[C@H]3C[C@H](O)[C@]12C` [NC20020], the inhibition at 1 µM was in the range of 50 to 100% in assay [1] and 20 to 50% in assay [2]. In addition, the IC50 in assay [3] was no less than 2000 nM; in assay [4] it was less than 50 nM.

Turning to `C[C@H](CCC(=O)N[C@H](Cc1ccccc1)CS(=O)(=O)O)[C@H]1CC[C@H]2[C@@H]3CC[C@@H]4C[C@H](O)CC[C@]4(C)[C@H]3CC[C@]12C` [NC10066], the inhibition at 1 µM is less than 20% in assay [1] and greater than 100% in assay [2]. For the same compound, the IC50 in assay [3] is 1000 to 2000 nM; in assay [4], less than 50 nM.

For the compound `CC[C@H]1[C@@H](O)[C@@H]2[C@H](CC[C@]3(C)[C@@H]([C@H](C)CCC(=O)NC[C@H](C)S(=O)(=O)O)CC[C@@H]23)[C@@]2(C)CC[C@@H](O)C[C@@H]12` [NC40022], the inhibition at 1 µM in assay [1] and in assay [2] was 20 to 50% throughout. Also, the values for the IC50 in assay [3] and in assay [4] were 500 to 1000 nM and no less than 200 nM, respectively.

Turning to `C[C@H](CCC(=O)N[C@@H](CS(=O)(=O)O)c1ccccc1)[C@H]1CC[C@H]2[C@@H]3CC[C@@H]4CC(=O)CC[C@]4(C)[C@H]3CC[C@]12C` [NC30019], the inhibition at 1 µM in assay [1] and in assay [2] was less than 20% in each case. Further, the IC50 in assay [3] is 1000 to 2000 nM; in assay [4], no less than 200 nM.

Turning to `CC[C@H]1[C@@H](O)[C@@H]2[C@H](CC[C@]3(C)[C@@H]([C@H](C)CCC(=O)N[C@@H](CC(C)C)CS(=O)(=O)O)CC[C@@H]23)[C@@]2(C)CC[C@@H](O)C[C@@H]12` [NC40030], the inhibition at 1 µM in assay [1] and in assay [2] was less than 20% each time. Also, the half-maximal inhibitory concentration (IC50) in assay [3] was 1000 to 2000 nM; in assay [4], no less than 200 nM.
